Laboratory results reported in patent US20250213510A1, “Aqueous Composition” (TSUBOTA LABORATORY, Inc., priority 2022, published 2025).

Tests used:
[1] = Stability of sodium 4-phenylbutyrate in multi-dose type containers (liquid chromatography); assay type: physicochemical; conditions: PE, PP, PET; 60° C., 1 week (Table 1-2)
Method: Each aqueous composition (formulations 1-0 to 1-4) shown in Table 1-1 was prepared through a usual method to fill 5-mL volume multi-dose type containers made of polyethylene (PE), polypropylene (PP), and polyethylene terephthalate (PET) by 5 mL each.
Liquid chromatography was used to quantify sodium 4-phenylbutyrate. 10 μL of 0.05 w/v % sodium 4-phenylbutyrate solution was used as a standard solution, and 10 μL of a formulation diluted 10 times with a mobile phase was used as a sample solution. The standard solution and the sample solution were each placed on a reverse-phase column (YMC-Pack ODS-A (I.D. 4.6 mm×150 mm, 5 μm) manufactured by YMC CO., LTD.) maintained at 30° C., and eluted with a 0.2% formic acid solution-acetonitrile mixture as a mobile phase. Detection was performed with an ultraviolet absorptiometer (measurement wavelength: 260 nm). Thereafter, the peak area of sodium 4-phenylbutyrate was measured for the standard solution and the sample solution, and the concentration of sodium 4-phenylbutyrate was determined for each formulation immediately after preparation and after storage at 60° C. for 1 week using Equation 1 below.

[2] = Stability of sodium 4-phenylbutyrate in unit-dose type containers (liquid chromatography); assay type: physicochemical; conditions: PE, COC/PE; 40° C., 1 month (Table 1-5)
Method: An aqueous composition (formulation 2-1) shown in Table 1-4 was prepared through a usual method to fill a 0.5-mL volume polyethylene (PE) unit-dose type container and a unit-dose type resin container made of a mixture of a cyclic olefin copolymer (COC) and polyethylene (PE) by 0.5 mL each.
Liquid chromatography was used to quantify sodium 4-phenylbutyrate. 20 μL of 0.02 w/v % sodium 4-phenylbutyrate solution was used as a standard solution, and 20 μL of a formulation 2-1 diluted 10 times with a mobile phase was used as a sample solution. The standard solution and the sample solution were each placed on a reverse-phase column (YMC-Pack ODS-A (I.D. 4.6 mm×150 mm, 5 μm) manufactured by YMC CO., LTD.) maintained at 30° C., and eluted with a 0.2% formic acid solution-acetonitrile mixture as a mobile phase. Detection was performed with an ultraviolet absorptiometer (measurement wavelength: 260 nm). Thereafter, the peak area of sodium 4-phenylbutyrate was measured for the standard solution and the sample solution, and the concentration of sodium 4-phenylbutyrate was determined for the formulation 2-1 immediately after preparation and after storage at 40° C. for 1 month using Equation 3 below.

- Stability of sodium 4-phenylbutyrate itself among the container resins [1]: no difference in stability
- Stability of sodium 4-phenylbutyrate itself among the container resins [2]: no difference in stability
Compound: O=C([O-])CCCc1ccccc1.[Na+] [sodium 4-phenylbutyrate, Sodium 4-phenylbutyrate]
